According to patent publication US20060247255A1, “Method for preparing a stable gatifloxacin composition” (priority 2005, published 2006):

Test: Polymorphic conversion testing after compression at 1 ton pressure and storage in different environments (DSC/FT-IR)
Format: physicochemical
Experimental: Polymorphic Conversion Testing after Compression at 1 Ton Pressure and Storage in Different Environments.
Compacts of glatifloxacin anhydrous and gatifloxacin hemihydrate were prepared and placed in chambers that were equilibrated as follows:
(i) 25° C. and 21% relative humidity (RH);
(iii) 40° C. and 21% RH; and
Compacts of glatifloxacin anhydrous and gatifloxacin hemihydrate were evaluated by DSC and FT-IR immediately after compression, after 2 days of exposure under the above conditions, and after 6 or 7 days of exposure.
Conversion is identified as a change in DSC thermogram or FT-IR pattern.

[1] = 6 or 7 Days at 25° C. and 21% RH
[2] = 6 or 7 Days at 25° C. and 75% RH
[3] = 6 or 7 Days at 40° C. and 21% RH
[4] = 6 or 7 Days at 40° C. and 75% RH

| Compound | Conversion (change in DSC thermogram) (2 Days at 25° C. and 21% RH) | Conversion (change in FT-IR pattern) (2 Days at 25° C. and 21% RH) | Conversion (change in DSC thermogram) (2 Days at 25° C. and 75% RH) | Conversion (change in FT-IR pattern) (2 Days at 25° C. and 75% RH) | Conversion (change in DSC thermogram) (2 Days at 40° C. and 21% RH) | Conversion (change in FT-IR pattern) (2 Days at 40° C. and 21% RH) | Conversion (change in DSC thermogram) (2 Days at 40° C. and 75% RH) | Conversion (change in FT-IR pattern) (2 Days at 40° C. and 75% RH) | Conversion (change in DSC thermogram) [1] | Conversion (change in FT-IR pattern) [1] | Conversion (change in DSC thermogram) [2] | Conversion (change in FT-IR pattern) [2] | Conversion (change in DSC thermogram) [3] | Conversion (change in FT-IR pattern) [3] | Physical stability [3] | Conversion (change in DSC thermogram) [4] | Conversion (change in FT-IR pattern) [4] | Conversion (change in DSC thermogram) (Immediately after compression) | Conversion (change in FT-IR pattern) (Immediately after compression) | also measured |
| --- | --- | --- | --- | --- | --- | --- | --- | --- | --- | --- | --- | --- | --- | --- | --- | --- | --- | --- | --- | --- |
| COc1c(N2CCNC(C)C2)c(F)cc2c(=O)c(C(=O)O)cn(C3CC3)c12 (stereo not shown) [Gatifloxacin Hemihydrate, 1-cyclopropyl-6-fluoro-1,4-dihydro-8-methoxy-7-(3-methyl-1-piperazinyl)-4-oxo-3-quinolinecarboxylic acid] | No/No | No/No | No/No | No/No | No/No | No/No | No/No | No/No | No/No | No/No | Yes | No | No/No | No/No | did not effect | Yes/Yes | Yes/Yes | No/No | No/No | Physical stability (approximately 75% RH for a period of at least 6 days): deleteriously effects the physical stability |
| COc1c(N2CCNC(C)C2)c(F)cc2c(=O)c(C(=O)O)cn(C3CC3)c12 (stereo not shown) [Gatifloxacin Anhydrous, 1-cyclopropyl-6-fluoro-1,4-dihydro-8-methoxy-7-(3-methyl-1-piperazinyl)-4-oxo-3-quinolinecarboxylic acid] | No/No | No/No | No/No | No/No | No/No | No/No | Yes/Yes | Yes/Yes | No/No | No/No | Yes/Yes | Yes/Yes | No/No | No/No | did not effect | Yes/Yes | Yes/Yes | No/No | No/No | Physical stability (approximately 75% RH for a period of 2 days): deleteriously effects the physical stability |
